This assay is described as follows: Blind test panel evaluation of sugar-free hard-boiled candies by trained evaluators. It is filed as in vivo. To be noted: hard-boiled candy. On the procedure:
The composition above was then used to prepare sugar-free hard-boiled candies, as follows: Isomalt (100 g) and water (30 g) were mixed and heated to 160° C. in a copper pan. At 160° C., the copper pan was removed from the heat and placed in a warm water bath (40° C.). When the temperature reached 135° C., aspartame, acesulfame-K, the liquid acidulant mixture (1.0%) and flavor were added. The cooked mass was poured at ambient temperature into appropriate Teflon® molds.
The following Table I summarizes the ingredients and respective dosages used in the preparation as described here above of a control hard-boiled candy according to the prior art and containing only citric acid as acidulant and a candy prepared according to the invention.
The Control candy and the Invention Candy were then evaluated by a panel of trained evaluators, on a blind test, and the results of this evaluation are shown in FIG. 1.

Experimental findings from patent publication US20120129953A1, “TINGLING AND SALIVATING COMPOSITIONS” (FIRMENICH SA, priority 2006, published 2012) are described below.

Molecules are shown by their SMILES.

In the case of `O=C(O)CC(O)(CC(=O)O)C(=O)O` [Citric acid], the impact and sourness entry was “deliver the expected effect”.
